# Test results published in patent US8609608B2, “Antimicrobial peptides” (C3 Jian, Inc., priority 2007, dated 2013).
# Like-named read-outs stand apart in the source and are kept apart here. Where no end group is shown, it is not given here.
# Experiments:
# [1] = test system: clinical isolates of S. mutans; format: cell-based, Streptococcus mutans
# Description: S. mutans clinical isolates UA140 (32), UA159 (1), T8 (33), ATCC 25175, GS5 (Kuramitsu and Ingersoll (1977) Infect Immun., 17: 330-337), and all gram-positive strains listed below (see Table 9) were grown under anaerobic conditions in brain heart infusion or Todd-Hewitt (TH) broth (Difco) overnight at 37° C. prior to use (Eckert et al. (2006) Antimicrob. Agents Chemother. 50: 3651-3657). Veillonella atypica PK1910 was grown in Veillonella medium (Egland et al. (2004) Proc. Natl. Acad. Sci., USA, 101: 16917-16922). All strains were grown in an anaerobic atmosphere of 80% N2, 10% CO2, and 10% H2.
# Antibacterial growth inhibition assays were performed using sterile 96-well plates in a final volume of 100 μl, TH or Veillonella medium as described previously (Qi et al. (2005) FEMS Microbial Lett. 251: 321-326). Briefly, bacterial cells were grown overnight to an optical density at 600 nm of 0.75 to 0.8 (corresponding to 1×10^8 CFU/ml) and then diluted to 1×10^5 CFU/ml in broth and aliquoted onto plates. An appropriate volume of peptide stock solution (5 to 20 mg/ml, in water or methanol, depending on solubility) was then added to the first column of the plate to give 500 μg/ml or 512 μg/ml, followed by serial 1:2 dilutions across the plate to give wells containing peptides ranging from 500 to 1.95 μg/ml or 512 to 2 μg/ml. Methanol alone was also added to control for the effects of the solvent. The plates were then incubated at 37° C. under anaerobic conditions for 16 to 20 h without shaking, and the MIC was determined as the concentration of peptide present in the last clear well after visual inspection. Up to 5% (vol/vol) methanol was found not to be antimicrobial (data not shown). MICs were determined in triplicate for all bacteria.
# P. aeruginosa = test: MIC against P. aeruginosa; format: cell-based, Pseudomonas aeruginosa
substance,measurement,setting,value
"FKTFLKWLHRF-NH2 [Peptide B-37, FKTFLKWLHRF*]","activity against S. mutans by MIC, in words",[1],active but to a lesser degree than B-33 or B-34
same,MIC,[1]; clinical isolates of,24 µg/mL
"YLFQTWQHLFR-OH [Peptide B-51, YLFQTWQHLFR]",MIC,[1]; clinical isolates of,>125 µg/mL
"LKQKLKILF-NH2 [Peptide S6L1-2, LKQKLK1LF*]",MIC S. mutans,[1]; Killing Peptide Library #7,125 µg/mL
same,MIC S. aureus,S. aureus; Killing Peptide Library #7,>500 µg/mL
same,MIC P. aeruginosa,P. aeruginosa; Killing Peptide Library #7,>500 µg/mL
"KLKKLLKHLHHLLH-NH2 [α-12, KLKKLLKHLHHLLH*]",MIC,[1]; clinical isolates of,8 µg/mL
"VKKLAKLVRRF-NH2 [Peptide B-61, VKKLAKLVRRF*]",MIC,[1]; clinical isolates of,16 to 32 µg/mL
"VFIVWVHKHVLF [Peptide S3L8-2, VFIVWVHKHVLF]",MIC L. casei,L. casei,>62.5 µg/mL
same,MIC S. aureus,S. aureus,>125 µg/mL
same,MIC P. aeruginosa,P. aeruginosa,>125 µg/mL
same,MIC E. faecalis,E. faecalis,>125 µg/mL
"RRWWRRK [Peptide 3C-2, RRWWRRK]",MIC,[1]; clinical isolates of,125 µg/mL
"AQAAHQAAHAAHQF-NH2 [α-4, AQAAHQAAHAAHQF*]","activity against S. mutans by MIC, in words",[1],inactive
same,MIC,[1]; clinical isolates of,>125 µg/mL
"RWRWRWK [Peptide 3C-4, RWRWRWK]",MIC,[1]; clinical isolates of,32 µg/mL
"KLVQQLKNIFR-OH [Peptide B-59, KLVQQLKNIFR]",MIC,[1]; clinical isolates of,>125 µg/mL
"RFRHFQERY-NH2 [Peptide S6L1-8, RFRHFQERY*]",MIC S. mutans,[1]; clinical isolates of,64 µg/mL
same,MIC S. aureus,S. aureus; Killing Peptide Library #7,125 µg/mL
same,MIC P. aeruginosa,P. aeruginosa,>500 µg/mL
"FLHKHVLRHRIVF [Peptide S3L8-14, FLHKHVLRHRIVF]",MIC L. casei,L. casei,>62.5 µg/mL
same,MIC S. aureus,S. aureus,>125 µg/mL
same,MIC P. aeruginosa,P. aeruginosa,>125 µg/mL
same,MIC E. faecalis,E. faecalis,>125 µg/mL
"LKQLKAGIY-NH2 [Peptide S6L1-3, LKQLKAGIY*]",MIC S. mutans,[1]; clinical isolates of,>500 µg/mL
same,MIC S. aureus,S. aureus; Killing Peptide Library #7,>500 µg/mL
same,MIC P. aeruginosa,P. aeruginosa,250 µg/mL
"RRRKWWK [Peptide 4C-1, RRRKWWK]",MIC,[1]; clinical isolates of,250 µg/mL
"AQAAKQAAKAAKQF-NH2 [α-8, AQAAKQAAKAAKQF*]","activity against S. mutans by MIC, in words",[1],inactive
same,MIC,"[1]; MIC range or value from all S. mutans isolates tested, binary, alpha-helix and RW libraries",>125 µg/mL
"LYHFLHWFQRF-NH2 [Peptide B-50, LYHFLHWFQRF*]","activity against S. mutans by MIC, in words",[1],weakly active
same,MIC,[1]; clinical isolates of,125 µg/mL
"VKNLAELVHRF-NH2 [Peptide B-45, VKNLAELVHRF*]",MIC,[1]; clinical isolates of,>250 µg/mL
"RRWKRRK [Peptide 4C-2, RRWKRRK]",MIC,[1]; clinical isolates of,500 µg/mL
"RRWWRRF-NH2 [Peptide 2C-2, RRWWRRF*]",MIC,[1]; clinical isolates of,12 to 24 µg/mL
"KLAENVKEILR-OH [Peptide B-47, KLAENVKEILR]",MIC,[1]; clinical isolates of,>250 µg/mL
"VKQLLKIFNRF-NH2 [Peptide B-58, VKQLLKIFNRF*]","activity against S. mutans by MIC, in words",[1],active but to a lesser degree than B-33 or B-34
same,MIC,[1]; clinical isolates of,32 to 62.5 µg/mL
"RRRKWWK [Peptide 4C-3, RRRKWWK]",MIC,[1]; clinical isolates of,125 µg/mL
"KLKKLLKRWRRWWR-OH [α-10, KLKKLLKRWRRWWR]",MIC,[1]; clinical isolates of,8 µg/mL
"RRRRWWW [Peptide 1C-1, RRRRWWW]",MIC,[1]; clinical isolates of,16 µg/mL
"YLLTEFQHLFK-OH [Peptide B-52, YLLTEFQHLFK]",MIC,[1]; clinical isolates of,>125 µg/mL
"RLLKRFKHLFK-OH [Peptide B-36, RLLKRFKHLFK]",MIC,[1]; clinical isolates of,31.25 to 125 µg/mL
"RRWWRRW [Peptide 1C-2, RRWWRRW]",MIC,[1]; clinical isolates of,16 µg/mL
"FKTFLQWLHRF-NH2 [Peptide B-53, FKTFLQWLHRF*]","activity against S. mutans by MIC, in words",[1],active but to a lesser degree than B-33 or B-34
same,MIC,[1]; clinical isolates of,16 to 64 µg/mL
"RVLQEIKQILK-OH [Peptide B-44, RVLQEIKQILK]",MIC,[1]; clinical isolates of,>250 µg/mL
"LHIHAHFHVHIHLHF [Peptide S3L8-8, LHIHAHFHVHIHLHF]",MIC L. casei,L. casei,>62.5 µg/mL
same,MIC S. aureus,S. aureus,>125 µg/mL
same,MIC P. aeruginosa,P. aeruginosa,>125 µg/mL
same,MIC E. faecalis,E. faecalis,>125 µg/mL
"RWRRWWRHFHHFFH-NH2 [α-9, RWRRWWRHFHHFFH*]",MIC,[1]; clinical isolates of,8 µg/mL
"RRRWWWR [Peptide 1C-3, RRRWWWR]",MIC,[1]; clinical isolates of,32 µg/mL
"KLVKLVFLY-NH2 [Peptide S6L1-6, KLVKLVFLY*]",MIC S. mutans,[1]; clinical isolates of,125 µg/mL
same,MIC S. aureus,S. aureus; Killing Peptide Library #7,>500 µg/mL
same,MIC P. aeruginosa,P. aeruginosa,>500 µg/mL
"FKKFWKWFRRFGGGRWRRLLKKLHHLLH-NH2 [FBα-12, FKKFWKWFRRF-GGG-RWRRLLKKLHHLLH*]",MIC (fusion library peptides),[1]; clinical isolates of,16 µg/mL
"ATHLLHALQRF-NH2 [Peptide B-46, ATHLLHALQRF*]",MIC,[1]; clinical isolates of,>250 µg/mL
"RRRWWWK [Peptide 3C-3, RRRWWWK]",MIC,[1]; clinical isolates of,31.25 to 125 µg/mL
"KLAQKVKRVLR [Peptide B-63, KLAQKVKRVLR]",MIC,[1]; clinical isolates of,>125 µg/mL
"RWRWRWR [Peptide 1C-4, RWRWRWR]",MIC,[1]; clinical isolates of,32 µg/mL
"IKQLLHFFQRFGGGRWRRLLKKLHHLLH-NH2 [FBα-13, IKQLLHFFQRF-GGG-RWRRLLKKLHHLLH*]",MIC (fusion library peptides),[1]; clinical isolates of,16 µg/mL
"LKQFVKFIHRF-NH2 [Peptide B-57, LKQFVKFIHRF*]","activity against S. mutans by MIC, in words",[1],active but to a lesser degree than B-33 or B-34
same,MIC,[1]; clinical isolates of,24 µg/mL
"KLVEQLKEIFR-OH [Peptide B-43, KLVEQLKEIFR]",MIC,[1]; clinical isolates of,>250 µg/mL
"KLKKLLKKLKKLLK [α-5, KLKKLLKKLKKLLK]",MIC,[1]; clinical isolates of,8 µg/mL
"VFLHRHVIKHKLVF [Peptide S3L8-13, VFLHRHVIKHKLVF]",MIC L. casei,L. casei,>62.5 µg/mL
same,MIC S. aureus,S. aureus,>125 µg/mL
same,MIC P. aeruginosa,P. aeruginosa,>125 µg/mL
same,MIC E. faecalis,E. faecalis,125 µg/mL
"KLLQTFNQIFR-OH [Peptide B-55, KLLQTFNQIFR]",MIC,[1]; clinical isolates of,>125 µg/mL
"RWRKRWK [Peptide 4C-4, RWRKRWK]",MIC,[1]; clinical isolates of,125 to 500 µg/mL
"KLFKRWKHLFR-OH [Peptide B-35, KLFKRWKHLFR]",MIC,[1]; clinical isolates of,31.25 to 125 µg/mL
"VGKCVKLLY-NH2 [Peptide S6L1-4, VGKCVKLLY*]",MIC S. mutans,[1]; clinical isolates of,125 µg/mL
same,MIC S. aureus,S. aureus; Killing Peptide Library #7,500 µg/mL
same,MIC P. aeruginosa,P. aeruginosa,250 µg/mL
"RVLNQVKQILK [Peptide B-60, RVLNQVKQILK]",MIC,[1]; clinical isolates of,>125 µg/mL
"RRRFWWR [Peptide 2C-1, RRRFWWR]",MIC,[1]; clinical isolates of,31.25 to 125 µg/mL
"FKAHIRFKLRVKFHF [Peptide S3L8-10, FKAHIRFKLRVKFHF]",MIC L. casei,L. casei,8 µg/mL
same,MIC S. aureus,S. aureus,>125 µg/mL
same,MIC P. aeruginosa,P. aeruginosa,>125 µg/mL
same,MIC E. faecalis,E. faecalis,>125 µg/mL
"AKRLLKVLKRF-NH2 [Peptide B-62, AKRLLKVLKRF*]",MIC,[1]; clinical isolates of,16 to 32 µg/mL
"VKTLLHIFQRF-NH2 [Peptide B-42, VKTLLHIFQRF*]",MIC,[1]; clinical isolates of,31.25 to 125 µg/mL
"LQLLKQLLKLLKQF-NH2 [α-7, LQLLKQLLKLLKQF*]",MIC,[1]; clinical isolates of,8 µg/mL
"FHYFWHWFHRF-NH2 [Peptide B-49, FHYFWHWFHRF*]","activity against S. mutans by MIC, in words",[1],weakly active
same,MIC,[1]; clinical isolates of,125 µg/mL
"KFVKLILAY-NH2 [Peptide S6L1-5, KFVKLI LAY*]","activity against S. mutans by MIC, in words",[1],moderate activity
same,MIC S. mutans,[1]; clinical isolates of,32 µg/mL
same,MIC S. aureus,S. aureus; Killing Peptide Library #7,>500 µg/mL
same,MIC P. aeruginosa,P. aeruginosa,92 µg/mL
"WRIHLRARLHVKFRF [Peptide S3L8-4, WRIHLRARLHVKFRF]",MIC L. casei,L. casei,8 µg/mL
same,MIC S. aureus,S. aureus,62.5 µg/mL
same,MIC P. aeruginosa,P. aeruginosa,>125 µg/mL
same,MIC E. faecalis,E. faecalis,8 µg/mL
"RRRRWWK [Peptide 3C-1, RRRRWWK]",MIC,[1]; clinical isolates of,125 µg/mL
"RALHEAKEALK-OH [Peptide B-48, RALHEAKEALK]",MIC,[1]; clinical isolates of,>250 µg/mL
"KLLQTFKQIFR-OH [Peptide B-39, KLLQTFKQIFR]",MIC,[1]; clinical isolates of,>250 µg/mL
"FHIKFRVHLKVRFHF [Peptide S3L8-6, FHIKFRVHLKVRFHF]",MIC L. casei,L. casei,8 µg/mL
same,MIC S. aureus,S. aureus,>125 µg/mL
same,MIC P. aeruginosa,P. aeruginosa,>125 µg/mL
same,MIC E. faecalis,E. faecalis,>125 µg/mL
"LKQFVHFIHRF-NH2 [Peptide B-41, LKQFVHFIHRF*]","activity against S. mutans by MIC, in words",[1],active but to a lesser degree than B-33 or B-34
same,MIC,[1]; clinical isolates of,32 µg/mL
"RILKELKNLFK-OH [Peptide B-40, RILKELKNLFK]",MIC,[1]; clinical isolates of,>250 µg/mL
"RALKRIKHVLK [Peptide B-64, RALKRIKHVLK]",MIC,[1]; clinical isolates of,>125 µg/mL
"IKVFAKQKY-NH2 [Peptide S6L1-7, IKVFAKQKY*]",MIC S. mutans,[1]; clinical isolates of,>500 µg/mL
same,MIC S. aureus,S. aureus; Killing Peptide Library #7,>500 µg/mL
same,MIC P. aeruginosa,P. aeruginosa,>500 µg/mL
"FHVKIHFRLHVKFHF [Peptide S3L8-7, FHVKIHFRLHVKFHF]",MIC L. casei,L. casei,16 µg/mL
same,MIC S. aureus,S. aureus,>125 µg/mL
same,MIC P. aeruginosa,P. aeruginosa,>125 µg/mL
same,MIC E. faecalis,E. faecalis,>125 µg/mL
"IKTLLHFFQRF-NH2 [Peptide B-54, IKTLLHFFQRF*]","activity against S. mutans by MIC, in words",[1],active but to a lesser degree than B-33 or B-34
same,MIC,[1]; clinical isolates of,32 to 62.5 µg/mL
